Results as given in patent publication US9730937B2, “RAF kinase modulator compounds and methods of use thereof” (AMBIT BIOSCIENCES CORPORATION, priority 2008, dated 2017).
Structures can show the parent of a compound that is named as a salt. Where two headings read alike, the source gives them in different places.

What was measured:
[1] = molecular target: wild type BRAF kinase (Homo sapiens (Human), UniProt P15056); conditions: read-out: BRAF WT Kd, class symbols
[2] = molecular target: RAF kinases (Homo sapiens (Human), UniProt P04049); conditions: read-out: RAF1 Kd, class symbols
Description: The liganded beads were blocked with excess biotin and washed with blocking buffer (SeaBlock (Pierce), 1% BSA, 0.05% Tween 20, 1 mM DTT) to remove unbound ligand and to reduce non-specific binding. […] Test compounds were prepared as 100× stocks in DMSO and rapidly diluted into the aqueous environment. DMSO was added to control assays lacking a test compound. Primary screen interactions were performed in polypropylene 384-well plates in a final volume of 34 μL, while Kd determinations were performed in polystyrene 96-well plates in a final volume of 135 μL. […] The kinase concentration in the eluates was measured by quantitative PCR. Each kinase was tested individually against each compound. KdS were determined using eleven serial threefold dilutions. A selectivity score, which is a quantitative measure of selectivity of a compound against a panel of enzymes, may be calculated for a compound by dividing the number of enzymes for which a compound meets a set criteria, (for example, a binding constant of 100 nM or less), by the total number of enzymes tested. […] (Note, for those compounds tested in a larger kinase panel, as indicated by an asterisk (*) next to the S35 score, the divisor is 321 (i.e. the larger panel contains 321 distinct kinases, excluding mutant variants.)).

[3] = molecular target: mutant BRAF kinase (Homo sapiens (Human), UniProt P15056, V600E); conditions: read-out: BRAF V600E Kd, class symbols
[4] = tested on: panel of 290 distinct kinases (321 in the larger panel), excluding mutant variants; conditions: kinase selectivity score, class symbols
[5] = value marked * (larger kinase panel)

Sequence of mutant BRAF kinase (P15056 whole entry V600E): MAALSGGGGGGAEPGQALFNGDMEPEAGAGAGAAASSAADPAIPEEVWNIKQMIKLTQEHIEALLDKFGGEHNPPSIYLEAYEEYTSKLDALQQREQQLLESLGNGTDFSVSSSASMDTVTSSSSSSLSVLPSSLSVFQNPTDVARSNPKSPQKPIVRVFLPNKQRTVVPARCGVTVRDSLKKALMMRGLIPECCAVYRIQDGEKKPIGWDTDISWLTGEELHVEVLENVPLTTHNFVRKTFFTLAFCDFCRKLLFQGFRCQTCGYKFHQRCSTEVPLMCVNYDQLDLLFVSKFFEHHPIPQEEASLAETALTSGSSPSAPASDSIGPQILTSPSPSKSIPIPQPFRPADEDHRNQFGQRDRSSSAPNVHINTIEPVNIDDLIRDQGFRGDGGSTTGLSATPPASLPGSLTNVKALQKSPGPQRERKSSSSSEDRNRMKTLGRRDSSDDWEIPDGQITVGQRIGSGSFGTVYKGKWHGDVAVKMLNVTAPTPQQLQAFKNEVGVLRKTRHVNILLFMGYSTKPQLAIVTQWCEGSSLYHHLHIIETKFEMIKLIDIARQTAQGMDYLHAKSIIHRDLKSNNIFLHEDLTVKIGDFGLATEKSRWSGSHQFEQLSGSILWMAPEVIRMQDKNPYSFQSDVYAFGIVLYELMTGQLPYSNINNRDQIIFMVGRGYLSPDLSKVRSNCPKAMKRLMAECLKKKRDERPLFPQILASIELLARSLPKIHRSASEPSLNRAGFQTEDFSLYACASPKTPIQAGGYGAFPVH
Sequence of RAF kinases (P04049 whole entry): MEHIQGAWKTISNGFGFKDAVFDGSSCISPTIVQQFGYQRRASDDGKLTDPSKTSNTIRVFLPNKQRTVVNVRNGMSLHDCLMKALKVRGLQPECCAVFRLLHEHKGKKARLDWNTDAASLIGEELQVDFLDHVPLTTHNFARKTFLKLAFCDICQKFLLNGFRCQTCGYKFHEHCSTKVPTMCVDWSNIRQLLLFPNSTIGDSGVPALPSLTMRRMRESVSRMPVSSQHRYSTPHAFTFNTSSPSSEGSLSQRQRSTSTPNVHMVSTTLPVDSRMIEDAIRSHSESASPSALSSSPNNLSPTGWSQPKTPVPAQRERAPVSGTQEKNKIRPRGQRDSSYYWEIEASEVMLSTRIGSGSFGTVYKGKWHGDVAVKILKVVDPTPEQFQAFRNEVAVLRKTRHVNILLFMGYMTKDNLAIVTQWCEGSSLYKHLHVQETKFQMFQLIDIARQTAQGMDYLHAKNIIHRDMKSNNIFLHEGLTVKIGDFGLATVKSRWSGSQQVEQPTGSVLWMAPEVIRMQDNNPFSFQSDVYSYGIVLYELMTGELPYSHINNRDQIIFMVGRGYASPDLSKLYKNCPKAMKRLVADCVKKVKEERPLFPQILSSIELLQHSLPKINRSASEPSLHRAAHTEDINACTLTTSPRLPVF
Sequence of wild type BRAF kinase (P15056 whole entry): as the sequence (P15056 whole entry V600E) above, with E600V counted along it

| Structure (SMILES) | Kd [1] | Kd [2] | Kd [3] | S35 ([4]; 290 distinct kinases) | S35 [4, 5] |
| --- | --- | --- | --- | --- | --- |
| COc1cc2ncnc(Sc3cccc(NC(=O)Nc4cc(C(C)(C)C)on4)c3)c2cc1OCCS(C)(=O)=O [Ex 88, 1-(5-tert-butylisoxazol-3-yl)-3-(3-(7-methoxy-6-(2-(methylsulfonyl)ethoxy)quinazolin-4-ylthio)phenyl)urea] | < 250 nM | < 250 nM | < 250 nM | C (0.20 < C ≦ 0.40) |  |
| COc1cc2ncnc(Oc3cccc(NC(=O)Nc4cccc(C(F)(F)F)c4)c3)c2cc1OC [Ex 181, 1-(3-(6,7-dimethoxyquinazolin-4-yloxy)phenyl)-3-(3-(trifluoromethyl)phenyl)urea] | < 250 nM | < 250 nM | < 250 nM |  | C* (0.20 < C ≦ 0.40) |
| COc1cc2ncnc(Oc3cccc(NC(=O)Nc4cc(C(C)(C)F)on4)c3)c2cc1OC [Ex 136, 1-(3-(6,7-dimethoxyquinazolin-4-yloxy)phenyl)-3-(5-(2-fluoropropan-2-yl)isoxazol-3-yl)urea] | < 250 nM | < 250 nM | < 250 nM |  | C* (0.20 < C ≦ 0.40) |
| COc1cc2ncnc(Oc3cccc(NC(=O)Nc4cc(C(C)C)on4)c3)c2cc1OC [Ex 133, 1-(3-(6,7-dimethoxyquinazolin-4-yloxy)phenyl)-3-(5-isopropylisoxazol-3-yl)urea] | < 250 nM | < 250 nM | < 250 nM |  | C* (0.20 < C ≦ 0.40) |
| COCC(C)(C)c1cc(NC(=O)Nc2cccc(Oc3ncnc4cc(OC)c(OC)cc34)c2)on1 [Ex 128, 1-(3-(6,7-dimethoxyquinazolin-4-yloxy)phenyl)-3-(3-(1-methoxy-2-methylpropan-2-yl)isoxazol-5-yl)urea] | > 1000 nM | > 1000 nM | < 250 nM |  | C* (0.20 < C ≦ 0.40) |
| COc1ccc(NC(=O)Nc2cccc(Oc3ncnc4cc(OC)c(OC)cc34)c2)cc1Cl [Ex 180, 1-(3-chloro-4-methoxyphenyl)-3-(3-(6,7-dimethoxyquinazolin-4-yloxy)phenyl)urea] | < 250 nM | < 250 nM | < 250 nM |  | B* (0.10 < B ≦ 0.20) |
| COc1cc2ncnc(Oc3cc(NC(=O)Nc4cc(C(C)(C)C)on4)ccc3Cl)c2cc1OC [Ex 10, 1-(5-tert-butylisoxazol-3-yl)-3-(4-chloro-3-(6,7-dimethoxyquinazolin-4-yloxy)phenyl)urea] | > 1000 nM | > 1000 nM |  | C (0.20 < C ≦ 0.40) |  |
| COc1cc2ncnc(Sc3cccc(NC(=O)Nc4cc(C(C)(C)C)nn4-c4ccccc4)c3)c2cc1OC [Ex 154, 1-(3-tert-butyl-1-phenyl-1H-pyrazol-5-yl)-3-(3-(6,7-dimethoxyquinazolin-4-ylthio)phenyl)urea] | > 1000 nM | > 1000 nM | > 1000 nM |  | D* (D > 0.40) |
| COc1cc2ncnc(Oc3cccc(NC(=O)Nc4cc(C(F)(F)F)nn4-c4ccccc4)c3)c2cc1OC [Ex 161, 1-[3-(6,7-dimethoxyquinazolin-4-yloxy)phenyl]-3-[1-phenyl-3-(trifluoromethyl)-1H-pyrazol-5-yl]urea] | > 1000 nM | > 1000 nM |  |  | C* (0.20 < C ≦ 0.40) |
| COc1cc2ncnc(Oc3cccc(NC(=O)Nc4cc(C(F)(F)F)n(C)n4)c3)c2cc1OC [Ex 165, 1-[3-(6,7-dimethoxyquinazolin-4-yloxy)phenyl]-3-[1-methyl-5-(trifluoromethyl)-1H-pyrazol-3-yl]urea] | < 250 nM | < 250 nM | < 250 nM |  | C* (0.20 < C ≦ 0.40) |
| CCOC(=O)Cn1nc(C(C)(C)C)cc1NC(=O)Nc1cccc(Oc2ncnc3cc(OC)c(OC)cc23)c1 [Ex 166, ethyl 2-(3-tert-butyl-5-{3-[3-(6,7-dimethoxyquinazolin-4-yloxy)phenyl]ureido}-1H-pyrazol-1-yl)acetate] | > 1000 nM | > 1000 nM |  |  | C* (0.20 < C ≦ 0.40) |
| COc1cc2c(Oc3cccc(NC(=O)Nc4cc(C(C)(C)C)on4)c3)ncnc2cc1OC1CCN(CC(F)F)CC1 [Ex 105, 1-(5-tert-butylisoxazol-3-yl)-3-(3-{7-[1-(2,2-difluoroethyl)piperidin-4-yloxy]-6-methoxyquinazolin-4-yloxy}phenyl)urea] | > 1000 nM | > 1000 nM | > 1000 nM |  | C* (0.20 < C ≦ 0.40) |
| COc1cc2ncnc(Oc3cccc(NC(=O)Nc4cc(C5(C)CC5)on4)c3)c2cc1OC [Ex 127, 1-(3-(6,7-dimethoxyquinazolin-4-yloxy)phenyl)-3-(5-(1-methylcyclopropyl)isoxazol-3-yl)urea] | < 250 nM | < 250 nM | < 250 nM | C (0.20 < C ≦ 0.40) |  |
| CC(C)(C)c1cc(NC(=O)Nc2cccc(Sc3ncnc4cc5c(cc34)OCCO5)c2)no1 [Ex 54, 1-(5-tert-butylisoxazol-3-yl)-3-[3-(7,8-dihydro-[1,4]dioxino[2,3-g]quinazolin-4-ylthio)phenyl]urea hydrochloride] | > 1000 nM | > 1000 nM |  | C (0.20 < C ≦ 0.40) |  |
| COc1cc2ncnc(Sc3cccc(NC(=O)Nc4cc(C(F)(F)F)nn4-c4ccccc4)c3)c2cc1OC [Ex 192, 1-[3-(6,7-dimethoxyquinazolin-4-ylthio)phenyl]-3-[1-phenyl-3-(trifluoromethyl)-1H-pyrazol-5-yl]urea] | > 1000 nM | > 1000 nM |  |  | C* (0.20 < C ≦ 0.40) |
| COc1cc2ncnc(Oc3cccc(NC(=O)Nc4cc(C5(C(F)(F)F)CCC5)no4)c3)c2cc1OC [Ex 155, 1-(3-(6,7-dimethoxyquinazolin-4-yloxy)phenyl)-3-(3-(1-(trifluoromethyl)cyclobutyl)isoxazol-5-yl)urea] | > 1000 nM | > 1000 nM |  |  | C* (0.20 < C ≦ 0.40) |
| CCOC(=O)Cn1nc(C(C)(C)C)cc1NC(=O)Nc1cccc(Sc2ncnc3cc(OC)c(OC)cc23)c1 [Ex 195, ethyl 2-(3-tert-butyl-5-{3-[3-(6,7-dimethoxyquinazolin-4-ylthio)phenyl]ureido}-1H-pyrazol-1-yl)acetate] | > 1000 nM | > 1000 nM |  |  | C* (0.20 < C ≦ 0.40) |
| COc1cc2c(Oc3cccc(NC(=O)Nc4cc(C(C)(C)C)on4)c3)ncnc2cc1O[C@H]1CCN(CC(F)F)C1 [Ex 103, (S)-1-(5-tert-butylisoxazol-3-yl)-3-(3-{7-[1-(2,2-difluoroethyl)pyrrolidin-3-yloxy]-6-methoxyquinazolin-4-yloxy}phenyl)urea] | > 1000 nM | > 1000 nM |  |  | C* (0.20 < C ≦ 0.40) |
| COCC(C)(C)c1cc(NC(=O)Nc2cccc(Oc3ncnc4cc(OC)c(OC)cc34)c2)no1 [Ex 130, 1-(3-(6,7-dimethoxyquinazolin-4-yloxy)phenyl)-3-(5-(1-methoxy-2-methylpropan-2-yl)isoxazol-3-yl)urea] | > 1000 nM | > 1000 nM |  | C (0.20 < C ≦ 0.40) |  |
| COc1cc2ncnc(Sc3cccc(NC(=O)Nc4ccc(Cl)c(C(F)(F)F)c4)c3)c2cc1OC [Ex 186, 1-(4-chloro-3-(trifluoromethyl)phenyl)-3-(3-(6,7-dimethoxyquinazolin-4-ylthio)phenyl)urea] | > 1000 nM | > 1000 nM |  |  | B* (0.10 < B ≦ 0.20) |
| COc1cc2ncnc(Sc3cccc(NC(=O)Nc4cc(C(F)(F)F)nn4-c4ccc(F)cc4)c3)c2cc1OC [Ex 198, 1-[3-(6,7-dimethoxyquinazolin-4-ylthio)phenyl]-3-[1-(4-fluorophenyl)-3-(trifluoromethyl)-1H-pyrazol-5-yl]urea] | > 1000 nM | > 1000 nM |  |  | C* (0.20 < C ≦ 0.40) |
| COc1ccc2c(Sc3cccc(NC(=O)Nc4cc(C(C)(C)C)on4)c3)ncnc2c1 [Ex 48, 1-(5-tert-butylisoxazol-3-yl)-3-(3-(7-methoxyquinazolin-4-ylthio)phenyl)urea] | > 1000 nM | > 1000 nM |  | C (0.20 < C ≦ 0.40) |  |
| CCOc1cc2ncnc(Sc3cccc(NC(=O)Nc4cc(C(C)(C)C)on4)c3)c2cc1OCC [Ex 51, 1-(5-tert-butylisoxazol-3-yl)-3-[3-(6,7-diethoxyquinazolin-4-ylthio)phenyl]urea] | > 1000 nM | > 1000 nM |  | C (0.20 < C ≦ 0.40) |  |
| COc1cc2ncnc(Oc3cccc(NC(=O)Nc4cc(C(=O)N5CCOCC5)cc(C(F)(F)F)c4)c3)c2cc1OC [Ex 149, 1-(3-(6,7-dimethoxyquinazolin-4-yloxy)phenyl)-3-(3-(morpholine-4-carbonyl)-5-(trifluoromethyl)phenyl)urea] | > 1000 nM | > 1000 nM |  |  | B* (0.10 < B ≦ 0.20) |
| COc1cc2ncnc(Oc3cccc(NC(=O)Nc4ccccc4)c3)c2cc1OC [Ex 182, 1-(3-(6,7-dimethoxyquinazolin-4-yloxy)phenyl)-3-phenylurea] | > 1000 nM | > 1000 nM | > 1000 nM |  |  |
| COCCOc1cc2ncnc(Oc3cccc(NC(=O)Nc4cc(C(=O)N5CCOCC5)cc(C(F)(F)F)c4)c3)c2cc1OC [Ex 205, 1-(3-(6-methoxy-7-(2-methoxyethoxy)quinazolin-4-yloxy)phenyl)-3-(3-(morpholine-4-carbonyl)-5-(trifluoromethyl)phenyl)urea] | > 1000 nM | > 1000 nM |  |  | C* (0.20 < C ≦ 0.40) |
| CCOc1cc2ncnc(Oc3cccc(NC(=O)Nc4cc(C(C)(C)C)on4)c3)c2cc1OCC [Ex 13, 1-(5-tert-butylisoxazol-3-yl)-3-[3-(6,7-diethoxyquinazolin-4-yloxy)phenyl]urea hydrochloride] | > 1000 nM | > 1000 nM |  | C (0.20 < C ≦ 0.40) |  |
| COc1cc2ncnc(Oc3cccc(NC(=O)Nc4cc(C(C)(C)C)on4)c3)c2cc1O[C@H]1CCN(C(=O)OC(C)(C)C)C1 [Ex 108, (S)-tert-butyl 3-(4-(3-(3-(5-tert-butylisoxazole-3-yl)ureido)phenoxy)-7-methoxyquinazolin-6-yloxy)pyrrolidine-1-carboxylate] | > 1000 nM | > 1000 nM |  | C (0.20 < C ≦ 0.40) |  |
